Experimental data from patent US9944589B2, “Cycloproplyamine derivatives useful as inhibitors of histone demethylases KDM1A” (Istituto Europeo de Oncologia S.r.L., priority 2012, dated 2018).
Structures can show the parent of a compound that is named as a salt. Where two headings read alike, the source gives them in different places.

Molecular target: T1, human recombinant KDM1A (LSD1)/CoRest (Homo sapiens, UniProt O60341)
T1 construct: made in house; host or cells: E. coli
Assay: Assay of enzyme inhibition of KDM1A (LSD1), Amplex UltraRed/peroxidase coupled
Type: biochemical
Details: 15 min preincubation, 4.5 μM mono-methylated H3-K4 peptide, range classes
Protocol: The experiments were performed using a mono-methylated H3-K4 peptide containing 21 amino acids (custom synthesis done by Thermo Scientific) as substrate and in a 50 mM TRIS, pH 8, 0.05 mg/ml BSA buffer.
The demethylase activity was estimated under aerobic conditions and at RT by measuring the release of H2O2 produced during the catalytic process by the Amplex® UltraRed detection system coupled with peroxidase assay. Briefly, a fixed amount of KDM1A/CoRest complex was incubated at RT for 15 minutes in the absence and/or the presence of various concentrations of inhibitor (e.g. from 0 to 100 μM, depending on the inhibitor strength) and of Amplex® UltraRed detection system coupled with peroxidase assay. The inhibitors were tested twice in duplicates at each concentration. […] The conversion of the Amplex® Ultra Red reagent to resorufin was monitored in continuous by fluorescence (excitation at 540 nm, emission at 590 nm) using a microplate reader (Infinite 200, Tecan). Arbitrary units were used to measure the level of H2O2 produced in the absence and/or in the presence of inhibition. The maximum demethylase activity of KDM1A/CoRest was obtained in the absence of inhibitors and corrected for background fluorescence in the absence of KDM1A/CoRest. The IC50 was calculated using GraphPad Software.

[1] = read-out: IC50 [μM], KDM1A inhibition assay
[2] = IC50 [μM], KDM1A inhibition assay

SMILES | IC50 [1] | IC50 [2]
CC(C)[C@@]1(N)C[C@H]1c1ccccc1 (relative stereo) [Example A-7, trans-1-isopropyl-2-phenyl-cyclopropanamine hydrochloride] | 1 to 5 µM | –
CC[C@@]1(N)C[C@H]1c1ccc(F)cc1 (relative stereo) [Example A-16, trans-1-ethyl-2-(4-fluorophenyl)cyclopropanamine hydrochloride] | 1 to 5 µM | –
CC[C@@]1(N)C[C@H]1c1ccc(Cl)cc1 (relative stereo) [Example A-17, trans-1-ethyl-2-(4-chlorophenyl)cyclopropanamine; hydrochloride] | 0.1 to 1 µM | –
CC[C@@]1(N)C[C@H]1c1cccc(C(F)(F)F)c1 (relative stereo) [Example A-18, trans-1-ethyl-2-[3-(trifluoromethyl)phenyl]cyclo-propanamine hydrochloride] | 0.1 to 1 µM | –
CC[C@@]1(N)C[C@H]1c1ccc(C(F)(F)F)cc1 (relative stereo) [Example A-19, trans-1-ethyl-2-[4-(trifluoromethyl)phenyl]cyclo-propanamine hydrochloride] | 0.1 to 1 µM | –
CC[C@@]1(N)C[C@H]1c1cccc(F)c1 (relative stereo) [Example A-20, trans-1-ethyl-2-(3-fluorophenyl)cyclopropanamine hydrochloride] | – | < 0.1 µM
CC[C@@]1(N)C[C@H]1c1cccc(Cl)c1 (relative stereo) [Example A-21, trans-1-ethyl-2-(3-chlorophenyl)-cyclopropanamine hydrochloride] | – | < 0.1 µM
CC[C@@]1(N)C[C@H]1c1cccc(Br)c1 (relative stereo) [Example A-22, trans-1-ethyl-2-(3-bromophenyl)-cycloproanamine hydrochloride] | – | < 0.1 µM
CC[C@@]1(N)C[C@H]1c1cccc(OC)c1 (relative stereo) [Example A-23, trans-1-ethyl-2-[3-methoxyphenyl]cyclopro-panamine hydrochloride] | 0.1 to 1 µM | –
CC[C@@]1(N)C[C@H]1c1ccccc1F (relative stereo) [Example A-25, trans-1-ethyl-2-(2-fluorophenyl)cyclopropanamine hydrochloride] | 0.1 to 1 µM | –
CC[C@@]1(N)C[C@H]1c1ccccc1Cl (relative stereo) [Example A-26, trans-1-ethyl-2-(2-chlorophenyl)-cyclopropanamine hydrochloride] | 0.1 to 1 µM | –
CC[C@@]1(N)C[C@H]1c1ccccc1Br (relative stereo) [Example A-27, trans-1-ethyl-2-(2-bromophenyl)-cyclopropanamine hydrochloride] | 0.1 to 1 µM | –
CC[C@@]1(N)C[C@H]1c1cccc(N=[N+]=[N-])c1 (relative stereo) [Example A-49, trans-2-(3-Azidophenyl)-1-ethyl-cyclopropanamine hydrochloride] | < 0.1 µM | –
CC[C@@]1(N)C[C@H]1c1ccc(Br)c(F)c1 (relative stereo) [Example A-50, trans-2-(4-bromo-3-fluoro-phenyl)-1-ethyl-cyclopropanamine hydrochloride] | – | < 0.1 µM
CC[C@@]1(N)C[C@H]1c1ccc(NC(=O)c2ccc(-c3ccccc3)c(NC3CCN(C)CC3)c2)cc1 (relative stereo) [Example A-66, N-[4-(trans-2-amino-2-ethyl-cyclopropyl)phenyl]-3-[(1-methyl-4-piperidyl)amino]-4-phenyl-benzamide dihydrochloride] | < 0.1 µM | –
CC[C@@]1(N)C[C@H]1c1ccc(NC(=O)Cc2ccc([N+](=O)[O-])cc2)cc1 (relative stereo) [Example A-69, N-[4-trans-[2-amino-2-ethyl-cyclopropyl]phenyl]-2-(4-nitrophenyl) acetamide hydrochloride] | < 0.1 µM | –

Continued, in another order:

IC50 [1] | SMILES | IC50 [2]
< 0.1 µM | CC[C@@]1(N)C[C@H]1c1ccc(NC(=O)c2cccc(-c3ccccc3)c2)cc1 (relative stereo) [Example A-35] | –
< 0.1 µM | CC[C@@]1(N)C[C@H]1c1ccc(NC(=O)Cc2ccccc2)cc1 (relative stereo) [Example A-39, N-[4-[(trans-2-amino-2-ethyl-cyclopropyl]phenyl]-2-phenyl-acetamide hydrochloride] | –
< 0.1 µM | N[C@@]1(CCc2ccccc2)C[C@@H]1c1cccc(Br)c1 (relative stereo) [Example A-51, trans 2-(3-bromophenyl)-1-phenethyl-cyclopropanamine hydrochloride] | –
0.1 to 1 µM | N[C@]1(Cc2ccc3ccccc3c2)C[C@H]1c1ccc(F)cc1 (relative stereo) [Example A-54, trans-2-(4-fluorophenyl)-1-(2-naphthylmethyl)cyclo-propanamine hydrochloride] | –
0.1 to 1 µM | N[C@]1(Cc2ccc3ccccc3c2)C[C@H]1c1ccc(Cl)cc1 (relative stereo) [Example A-55, trans-2-(4-chlorophenyl)-1-(2-naphthylmethyl)cyclo-propanamine hydrochloride] | –
0.1 to 1 µM | N[C@]1(Cc2ccc3ccccc3c2)C[C@H]1c1cccc(Cl)c1 (relative stereo) [Example A-56, trans-2-(3-chlorophenyl)-1-(2-naphthylmethyl)cyclo-propanamine hydrochloride] | –
0.1 to 1 µM | N[C@]1(Cc2ccc3ccccc3c2)C[C@H]1c1cccc(Br)c1 (relative stereo) [Example A-57, trans-2-(3-bromophenyl)-1-(2-naphthylmethyl)cyclo-propanamine hydrochloride] | –
< 0.1 µM | N[C@]1(CCc2ccccc2)C[C@H]1c1ccc(Cl)cc1 (relative stereo) [Example A-58, trans-2-(4-chlorophenyl)-1-phenethyl-cyclopropanamine hydrochloride] | –
0.1 to 1 µM | N[C@]1(CCc2ccccc2)C[C@H]1c1ccc(F)cc1 (relative stereo) [Example A-59, trans-2-(4-fluorophenyl)-1-phenethyl-cyclopropanamine hydrochloride] | –
0.1 to 1 µM | N[C@]1(Cc2ccccc2)C[C@H]1c1ccc(F)cc1 (relative stereo) [Example A-60, trans-1-benzyl-2-(4-fluorophenyl)cyclo-propanamine] | –
0.1 to 1 µM | N[C@]1(Cc2ccccc2)C[C@H]1c1ccc(Cl)cc1 (relative stereo) [Example A-61, trans-1-benzyl-2-(4-chlorophenyl)cyclo-propanamine hydrochloride] | –
0.1 to 1 µM | N[C@]1(CCc2ccccc2)C[C@H]1c1ccc(Br)cc1 (relative stereo) [Example A-62, trans 2-(4-bromophenyl)-1-phenethyl-cyclopropanamine 2,2,2-trifluoroacetic acid] | –
0.1 to 1 µM | CC[C@@]1(N)C[C@H]1c1cccc(NC(=O)c2ccccc2)c1 (relative stereo) [Example A-93, N-[3-[trans-2-amino-2-ethyl-cyclopropyl]phenyl] benzamide hydrochloride] | –
< 0.1 µM | CC[C@@]1(N)C[C@H]1c1ccc(NC(=O)Cc2cccc3ccccc23)c(F)c1 (relative stereo) [Example A-94, N-[4-[trans-2-amino-2-ethyl-cyclopropyl]-2-fluoro-phenyl]-2-(1-naphthyl) acetamide hydrochloride] | –
